Experimental data taken from patent publication US7846957B2, “Aromatase inhibition to enhance assisted reproduction” (Ares Trading S.A., priority 2001, dated 2010).

Experiments:
Assay type in all cases: in vivo, human
[1] = test system: infertile patients (3 with PCOS and 4 with unexplained infertility); assay: Letrozole alone in a single dose, ovarian stimulation and cycle monitoring for IUI (Example 3)
Procedure: The estradiol levels in 9 treatment cycles in 7 infertile patients (3 with PCOS and 4 with unexplained infertility) undergoing ovarian stimulation and cycle monitoring for IUI who received a single 20 mg dose of letrozole on day 3 of the cycle. Follicle development was monitored by transvaginal ultrasound and by serum levels of estradiol and LH.

[2] = test system: PCOS and unexplained infertility undergoing IUI; assay: Letrozole for Ovulation Induction: Summary (Example 5)
Source text: Patient Group: PCOS and unexplained infertility undergoing IUI.
Results: Pregnancy rate was higher with Letrozole VS CC in both kinds of regimen, ovulation rate was higher with Letrozole VS CC in PCOS patients (not reported for unexplained fertility), endometrial thickness was better with Letrozole.

[3] = test system: patients who either failed to ovulate or ovulated with an endometrial thickness <5 mm in response to CC; assay: Letrozole cycles vs CC cycles in patients with inadequate response to CC (Example 2)
Procedure: HCG 10,000 IU was given to trigger ovulation. CC was given in a dose of 50-100 mg on days 3-7 or 5-9.

[4] = mean, single 20 mg dose on day 3
[5] = mean, single 20 mg dose on day 3, listed as letrozole
[6] = single 20 mg dose on day 3, spread in brackets

N#Cc1ccc(C(c2ccc(C#N)cc2)n2cncn2)cc1 [Letrozole, letrozole]
Pregnancy was achieved (patients) ([1]; 7 patients, 9 treatment cycles, single 20 mg dose): one | Estradiol on hCG day (pmol/L) [1, 4]: 831 (359) pmol/L | Estradiol/mature follicle (pmol/L) [1, 4]: 390 (74) pmol/L | Estradiol on hCG day [1, 5]: 831 pmol/L | Estradiol/mature follicle [1, 5]: 390 pmol/L | Endometrial thickness on hCG day (cm) [1, 6]: 0.9 (0.11) cm | Follicles > 1.5 cm [1, 6]: 2.29 (1.3) | LH (IU/L) [1, 6]: 19.1 (12.7) IU/L | ovulation rate ([2]; Letrozole VS CC in PCOS patients): higher | Pregnancy rate ([2]; Letrozole VS CC in both kinds of regimen (alone in PCOS; plus FSH in unexplained infertility)): higher | endometrial thickness ([2]; Letrozole vs CC): better

CCN(CC)CCOc1ccc(C(=C(Cl)c2ccccc2)c2ccccc2)cc1.O=C(O)CC(O)(CC(=O)O)C(=O)O [CC]
Day of hCG administration, Mean ([3]; Mean): 12.6 | Endometrial Thickness (Cm.), Mean ([3]; Mean): 0.5 Cm. | Estradiol (pmol/L) on day of hCG administration, Mean ([3]; Mean): 2145 pmol/L | Estradiol per mature follicle (pmol/L), Mean ([3]; Mean): 1278 pmol/L | Follicles > 1.5 Cm on day of hCG administration, Mean ([3]; Mean): 1.9 | LH on day of hCG administration (IU/L), Mean ([3]; Mean): 16 IU/L | Number of Days from last letrozole tablet to hCG day, Mean ([3]; Mean): 4.4 | Day of hCG administration, Median ([3]; Median): 12 | Endometrial Thickness (Cm.), Median ([3]; Median): 0.4 Cm. | Estradiol (pmol/L) on day of hCG administration, Median ([3]; Median): 1668 pmol/L | Estradiol per mature follicle (pmol/L), Median ([3]; Median): 1486 pmol/L | Follicles > 1.5 Cm on day of hCG administration, Median ([3]; Median): 2 | LH on day of hCG administration (IU/L), Median ([3]; Median): 8 IU/L | Number of Days from last letrozole tablet to hCG day, Median ([3]; Median): 4 | Day of hCG administration, Range ([3]; Range): 11-16 | Endometrial Thickness (Cm.), Range ([3]; Range): 0.4-0.8 Cm. | Estradiol (pmol/L) on day of hCG administration, Range ([3]; Range): 362 to 5210 pmol/L | Estradiol per mature follicle (pmol/L), Range ([3]; Range): 177 to 2404 pmol/L | Follicles > 1.5 Cm on day of hCG administration, Range ([3]; Range): 1-5 | LH on day of hCG administration (IU/L), Range ([3]; Range): 3-66 IU/L | Number of Days from last letrozole tablet to hCG day, Range ([3]; Range): 2-7
